Data: PMC11890061 (2025)

Legend:
[1] = test system: L-apt3.1 (L-RNA, aptamer, all L-ribonucleotides) GCCGCACUGGUGGGUCGGUGGGAAGCGGC; assay: ligand fluorescence enhancement; settings: 150 mM KCl; 10 mM LiCaco pH 7.0; 1 μM RNA, 1 μM ligand; higher in K+ than Li+
[2] = test system: D-apt3.1 (RNA, aptamer) GCCGCACUGGUGGGUCGGUGGGAAGCGGC; assay: ligand fluorescence enhancement; settings: 150 mM KCl; 10 mM LiCaco pH 7.0; 1 μM RNA, 1 μM ligand; higher in K+ than Li+
[3] = test system: D-apt3.1b (RNA, aptamer) GCCGCACUUCUGGGGGGGUGGGAAGCGGC; assay: ligand fluorescence enhancement; settings: 150 mM KCl; 10 mM LiCaco pH 7.0; 1 μM RNA, 1 μM ligand; higher in K+ than Li+
[4] = test system: D-apt3.1h (RNA, aptamer) GCCGCACUGGUGGGUCGGUGGGGAGCGGC; assay: ligand fluorescence enhancement; settings: 150 mM KCl; 10 mM LiCaco pH 7.0; 1 μM RNA, 1 μM ligand; higher in K+ than Li+
[5] = test system: D-apt3.1e (RNA, aptamer) GCCGCAAUGGUGGGUAGGUGGGAAGCGGC; assay: ligand fluorescence enhancement; settings: 150 mM KCl; 10 mM LiCaco pH 7.0; 1 μM RNA, 1 μM ligand; higher in K+ than Li+
[6] = test system: FAM-D-(TG)12 (DNA, single strand) TGTGTGTGTGTGTGTGTGTGTGTG; assay: NMM staining of native gel; settings: 150 mM KCl (gel: 50 mM potassium acetate); 10 mM Tris-HCl pH 7.5; 2.5 μM oligo; 1 μg/mL NMM highest tested; no band
[7] = test system: D-(UG)12 (RNA, G4) UGUGUGUGUGUGUGUGUGUGUGUG; assay: fluorescence titration (microplate reader); settings: 150 mM KCl, 1 mM MgCl2; 25 mM Tris-HCl pH 7.5, 37 °C; 100 nM NMM, RNA varied; one-site fit
[8] = test system: FAM-D-(UG)12 mut1 (RNA, single strand) UGUAUGUGUAUGUGUAUGUGUAUG; assay: NMM staining of native gel; settings: 150 mM KCl (gel: 50 mM potassium acetate); 10 mM Tris-HCl pH 7.5; 2.5 μM oligo; 1 μg/mL NMM highest tested; no band
[9] = test system: FAM-D-(UG)12 (RNA, G4) UGUGUGUGUGUGUGUGUGUGUGUG; assay: EMSA competition; settings: 150 mM KCl, 1 mM MgCl2; 25 mM Tris-HCl pH 7.5, 37 °C; 250 nM L-apt3.1 (L-RNA aptamer) displaced; 10 nM RNA
[10] = test system: D-apt3.1i (RNA, aptamer) GCCGCACUGGUGGGUCGGUGGGAGGCGGC; assay: ligand fluorescence enhancement; settings: 150 mM KCl; 10 mM LiCaco pH 7.0; 1 μM RNA, 1 μM ligand; higher in K+ than Li+
[11] = test system: D-apt3.1g (RNA, aptamer) GCCGCACUGGCGGGUCGGUGGGAAGCGGC; assay: ligand fluorescence enhancement; settings: 150 mM KCl; 10 mM LiCaco pH 7.0; 1 μM RNA, 1 μM ligand; higher in K+ than Li+
[12] = test system: FAM-D-(UG)12 mut2 (RNA, single strand) UGUGCGUGUGCGUGUGCGUGUGCG; assay: NMM staining of native gel; settings: 150 mM KCl (gel: 50 mM potassium acetate); 10 mM Tris-HCl pH 7.5; 2.5 μM oligo; 1 μg/mL NMM highest tested; no band

Row | SMILES | binding [1] | binding [2] | binding [3] | binding [4] | binding [5] | binding [6] | Kd [7] | binding [8] | IC50 [9] | binding [10] | binding [11] | binding [12]
1 | Cc1ccc2c(c1)sc(-c1ccc(N(C)C)cc1)[n+]2C | yes | yes | – | – | – | – | – | – | – | – | – | –
2 | CCc1c(C)c2cc3nc(cc4nc(cc5c(CC)c(C)c(cc1[nH]2)n5C)C(C)=C4CCC(=O)O)C(CCC(=O)O)=C3C | yes | yes | yes | yes | yes | no | 0.3774 ± 0.1006 µM | no | 10.7 ± 1.1 µM | yes | yes | no
